# Values joined by “and” are separate entries in the source; they are usually repeats but may differ in a detail not shown here. Equal entries are not always repeated.
# Columns and labels:
# PANC-1 [1] = assay: Cell proliferation assay (alamarBlue); format: cell-based, human; conditions: for EC50 of free drug, PANC-1: in words
# Description: (§1) CPSNPs in 70/30 ethanol/water suspensions were completely dried under pre-purified argon and reconstituted in sterile 1×PBS without calcium or magnesium.
# (§2) BxPC-3 and Panc-1 were obtained from ATCC. RLT-PSC pancreatic stellate cells were a gift from Professor Ralf Jesenofsky, University of Heidelberg, and H6c7, immortalized human pancreatic ductal epithelial cells, were a gift of Dr. Ming-Sound Tsao, University of Toronto. H6c7 cells have a near normal genotype with wild type p53 and KRAS genes. Cells were cultured in the appropriate media as follows: Dulbecco's modified Eagle medium with 10% FBS for PANC-1 and RLT-PSC, RPMI 1640 with 10% FBS for BxPC-3, and complete keratinocyte basal medium (KBM), containing growth factors, hormones and bovine pituitary extract for H6c7 cells (Invitrogen).
# (§3) PANC-1, BxPC-3, RLT-PSC and H6c7 cells were seeded into 96 well plates at 5,000 cells per well. At 24 hours post seeding, media only/no treatment (NT), vehicle (lx sterile PBS without calcium and magnesium), 5FU and FdUMP treatments were initiated and viable cells determinations were made at 24, 48 or 72 hr post-treatment using an alamarBlue® assay (Life Technologies). Data were normalized to vehicle treatments for all time points.
# (§4) CPSNPs in 70/30 ethanol/water suspensions were completely dried under pre-purified argon and reconstituted in sterile 1×PBS without calcium or magnesium. PANC-1, BxPC-3, RLT-PSC and H6c7 cells were seeded into 96 well plates at 5,000 cells per well. At 24 hours post seeding, media only/no treatment (NT), vehicle (1× sterile PBS without calcium and magnesium), 5FU and FdUMP treatments were initiated and viable cells determinations were made at 24, 48 or 72 hr post-treatment using an alamarBlue® assay (Life Technologies). Data were normalized to vehicle treatments for all time points.
# (§5) Results were expressed as means±standard error. Student t-tests were used to evaluate statistical significance with a p<0.05 considered to be significant. To calculate EC50±95% CI, nonlinear regression analysis was performed to generate the curve of best fit for the data according to a Sigmoidal regression using a 4-parameter logistic curve calibration [Y=Yo+(a/(1+((X/Xo)^b))] in SigmaPlot 12 (Systat, Inc.).
# BxPC-3 = assay: Cell proliferation assay (alamarBlue); format: cell-based, human; conditions: for Decrease of BxPC-3 proliferation: 200 μM free drug; for EC50 of free drug, BxPC-3: in words
# Description: as §1, §2, §3, §4, §5
# PANC-1 [2] = assay: Cell cycle analysis by propidium iodide flow cytometry; format: cell-based, human; conditions: PANC-1, 72 hr, 250 μM
# Method: For determination of nuclear DNA content, PANC-1 treatments included NT, vehicle (1× sterile calcium- and magnesium-free PBS), 250 μM free FdUMP, Ghost-CPSNPs, or 200 nM FdUMP-CPSNPs. After 72 hours of treatment, cells were fixed in 75% ethanol overnight. Immediately prior to analysis, cells were treated with 1 μg/mL of RNase A and stained with 50 μg/mL of propidium iodide, which is taken up by double-stranded DNA. DNA content was determined using a FACSCalibur flow cytometer (BD Biosciences), and data were analyzed with Cellquest (Verity Software).
# For determination of nuclear DNA content, PANC-1 treatments included NT, vehicle (1× sterile calcium- and magnesium-free PBS), 250 μM free FdUMP, ghost-CPSNPs, or 200 nM FdUMP-CPSNPs. After 72 hours of treatment, cells were fixed in 75% ethanol overnight. Immediately prior to analysis, cells were treated with 1 μg/mL of RNase A and stained with 50 µg/mL of propidium iodide, which is taken up by double-stranded DNA. DNA content was determined using a FACSCalibur flow cytometer (BD Biosciences), and data were analyzed with Cellquest (Verity Software).
# [3] = target: T1, thymidylate synthase (TS) (Homo sapiens, UniProt P04818); assay: Thymidylate synthase immunoblotting, BxPC-3 cells; format: cell-based; design: PANC-1 cells were incubated for 24 hours in the following treatment groups; endogenous in cells; conditions: 250 μM free FdUMP
# [4] = Encapsulated drug concentration and encapsulation efficiency (EE) in Cit-X-CPSNPs by LC-MS/MS; format: physicochemical; conditions: for Drug concentration (M) / EE (mol %): citrate-functionalized CPSNPs, weighted mean ± 95% confidence interval, n = 4-6 replicates
# Method: The encapsulation efficiencies (EE) in Table 1 was experimentally determined by LC-MS/MS for 5FU, 5FU:ATP, FUdR, FdUMP, Gem, and GemMP, as drawn in FIG. 2 1. The EE is defined by the following equation,
# (§6) where mi was the total drug content in moles and mf was the moles encapsulated as assessed by LC-MS/MS. Particles were diluted in 10% methanol with 0.1% formic acid and 5-CU was spiked in as an internal standard. Chromatography was done on a 2.1 mm×10 cm HSS T3 or C18 CSH column (Waters) on a Waters I-class FTN chromatography system with the column temperature at 40° C. Mobile phase A was water with 5 mM ammonium acetate and B was methanol. The flow rate was 0.5 mL/min and the chromatography consisted of holding at 7.5% B for 1 min, increasing to 95% B over 0.5 min, holding at 95% B for 0.5 min before equilibration to starting conditions. Eluate was analyzed by an inline Waters TQ-S mass spectrometer. The capillary was set at 1.0 kV, source temperature at 150° C., desolvation temperature at 600° C., cone gas at 150 L/hr, and desolvation gas flow at 1200 L/hr. Multiple reaction monitoring (MRM) was used to detect 5-CU, FdUMP, Gem, and GemMP. The MRM transition used for 5-CU was 145 >42 with the collision energy set at 12. The MRM transition used for drug agents was 325 >195 with the collision energy set at 12. Drug concentrations were determined using TargetLynx version 4.1 (Waters) using an external calibration curve with 1/x weighting.
# as §6, with “Particles” for “where mi was the total drug content in moles and mf was the moles encapsulated as assessed by LC-MS/MS. Particles”, “5-CU” for “5-CU, FdUMP, Gem,”, “FdUMP.” for “GemMP.”, “FdUMP” for “drug agents”, “FdUMP” for “Drug”
# [5] = target: T1, thymidylate synthase (TS); assay: Thymidylate synthase immunoblotting, PANC-1 cells; format: cell-based; design: endogenous in cells; host or cells: PANC-1 (ATCC); conditions: 250 μM free FdUMP
# Method: Thus in the presence of folate, TS dimers and FdUMP create an irreversibly inactivated enzyme:drug complex.^59 Experimentally, the inhibition of TS activity by FdUMP can be detected by the presence of this stable ternary complex.
# PANC-1 cells were incubated for 24 hours in the following treatment groups: NT, vehicle, 250 μM free FdUMP, 200 nM FdUMP-CPSNPs, and Ghost-CPSNPs in PBS. Lysates were collected by aspirating the media, washing with 1×PBS, and adding RIPA buffer containing Complete Mini protease cocktail (Roche). Lysates were spun to remove debris and the supernatants frozen at −80° C. Protein concentration was determined by micro BCA protein assay (Thermo Scientific) and 20 μg of protein separated by gel electrophoresis. After transfer to HyBond ECL and blocking for 1 hr in 5% BSA, blots were probed overnight with anti-TS antibody (1:1000, D5B3, #9045 Cell Signaling). Blots were washed, probed with anti-rabbit-HRP secondary antibody for 1 hour and developed with Pierce Pico (Thermo Scientific). Quantitation of scanned blots was done using Image J software.
# PANC-1 cells were incubated for 24 hours in the following treatment groups: NT, vehicle, 250 μM free FdUMP, 200 nM FdUMP-CPSNPs, and ghost-CPSNPs in PBS. […] Lysates were spun to remove debris and the supernatants frozen at −80° C. […] Quantitation of scanned blots was done using Image J software.
# [6] = in vivo; cited from earlier work
# T1 sequence (P04818 2-313 limits assumed): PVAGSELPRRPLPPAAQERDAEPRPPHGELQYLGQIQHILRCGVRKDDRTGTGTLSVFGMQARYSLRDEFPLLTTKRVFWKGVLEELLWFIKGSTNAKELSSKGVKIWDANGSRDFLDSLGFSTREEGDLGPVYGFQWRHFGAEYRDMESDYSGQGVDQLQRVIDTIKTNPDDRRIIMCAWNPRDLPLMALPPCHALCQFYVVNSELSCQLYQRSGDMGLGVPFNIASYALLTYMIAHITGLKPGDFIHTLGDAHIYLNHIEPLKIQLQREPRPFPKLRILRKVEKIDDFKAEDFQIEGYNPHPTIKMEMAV
Compound,"EC50 of free drug, PANC-1 (PANC-1 [1])","EC50 of free drug, BxPC-3 (BxPC-3)","EE, range over replicated formulations ([4]; Cit-X-CPSNPs)",Drug concentration (M) [4],EE (mol %) [4],Reduction of PANC-1 proliferation (PANC-1 [1]; 200 μM free drug),Decrease of BxPC-3 proliferation (BxPC-3),% Cells in G2/M (PANC-1 [2]) [%],% Cells in G1/G0 (PANC-1 [2]; listed as free FdUMP),% Cells in S (PANC-1 [2]; listed as free FdUMP),"TS in inactive ternary complex (inhibition), BxPC-3 [3] [%]","Encapsulated drug concentration, range over replicated formulations ([4]; Cit-X-CPSNPs) [µM]","TS in inactive ternary complex (inhibition), PANC-1 [5] [%]",Fraction of 5FU catabolized to 5-fluorodihydrouracil by DPD [6],Fraction of 5FU pro-drug activated to FdUMP [6]
"O=c1[nH]c(=O)n([C@H]2C[C@H](O)[C@@H](COP(=O)(O)O)O2)cc1F [FdUMP, 5-fluoro-2′-deoxyuridine 5′-monophosphate]",low uM,low uM,7-97 mol %,3.0 (±1.4)×10^−4 M,41 (±16) mol %,twice as effective as free 5FU,equally effective,23.5 ± 6.3,20% and 20.3 ± 3.0%,56% and 56.3 ± 10.3%,90,60 to 830,80,–,–
"Nc1ccn([C@@H]2O[C@H](CO)[C@@H](O)C2(F)F)c(=O)n1 [Gem, 2′,2′-difluorodeoxycytidine]",–,–,–,1.9 (±0.6)×10^−9 M,< 0.01 mol %,–,–,–,–,–,–,–,–,–,–
gemcitabine monophosphate [GemMP],nM range,nM range,15-30 mol %,2.3 (±0.4)×10^−5 M,22 (±6) mol %,–,–,–,–,–,–,–,–,–,–

# Second part, led by results:
"EC50 of free drug, PANC-1 (PANC-1 [1])","EC50 of free drug, BxPC-3 (BxPC-3)","EE, range over replicated formulations ([4]; Cit-X-CPSNPs)",Drug concentration (M) [4],EE (mol %) [4],Compound,Reduction of PANC-1 proliferation (PANC-1 [1]; 200 μM free drug),Decrease of BxPC-3 proliferation (BxPC-3),% Cells in G2/M (PANC-1 [2]) [%],% Cells in G1/G0 (PANC-1 [2]; listed as free FdUMP),% Cells in S (PANC-1 [2]; listed as free FdUMP),"TS in inactive ternary complex (inhibition), BxPC-3 [3] [%]","Encapsulated drug concentration, range over replicated formulations ([4]; Cit-X-CPSNPs) [µM]","TS in inactive ternary complex (inhibition), PANC-1 [5] [%]",Fraction of 5FU catabolized to 5-fluorodihydrouracil by DPD [6],Fraction of 5FU pro-drug activated to FdUMP [6]
–,–,< 0.01 mol %,2.8 (±1.2)×10^−8 M,< 0.01 mol %,"O=c1[nH]c(=O)n([C@H]2C[C@H](O)[C@@H](CO)O2)cc1F [FUdR, 5-fluoro-2′-deoxyuridine]",–,–,–,–,–,–,–,–,–,–
low uM,low uM,–,4.1 (±1.8)×10^−7 M,0.11 (±0.04) mol %,"O=c1[nH]cc(F)c(=O)[nH]1 [Formulation 5FU, 5-fluorouracil]",–,equally effective,–,–,–,–,–,–,more than 80%,less than 20%

# — US20190255087A1, “ENCAPSULATION AND HIGH LOADING EFFICIENCY OF PHOSPHORYLATED DRUG AND IMAGING AGENTS IN NANOPARTICLES” (THE PENN STATE RESEARCH FOUNDATION, priority 2016, published 2019)
